Results published in patent US4493839A, “1-Carbapenem-3-carboxylic esters as anti-inflammatory agents” (Merck & Co., Inc., priority 1982, dated 1985).

Molecular target: T1, Human Polymorphonuclear Leukocyte Elastase (Homo sapiens, UniProt P08246)
T1 construct: Crude extract of human polymorphonuclear leukocytes (PMN) containing elastase activity; endogenous in cells; host or cells: human polymorphonuclear leukocytes (crude extract)
T1 sequence (P08246 30-247 limits assumed): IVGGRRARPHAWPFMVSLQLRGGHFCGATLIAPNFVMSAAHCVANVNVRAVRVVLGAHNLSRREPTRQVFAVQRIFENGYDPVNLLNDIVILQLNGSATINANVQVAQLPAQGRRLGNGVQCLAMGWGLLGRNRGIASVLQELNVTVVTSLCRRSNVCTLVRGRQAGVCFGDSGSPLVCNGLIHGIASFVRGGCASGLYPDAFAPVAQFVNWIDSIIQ
Test: Enzyme assay for the inhibition of human polymorphonuclear leukocyte elastase via hydrolysis of N-t-Boc-alanyl-alanyl-prolylalanine-p-nitroanilide
Assay type: biochemical
Conditions: measured within 2 minutes, crude PMN extract, 0.2 mM Boc-AAPAN, pH 7.5; for inhibition at 20 µg/mL: Conc. 20 μg/ml; for inhibition at 50 µg/mL: Conc. 50 μg/ml; for inhibition at 5 µg/mL: Conc. 5 μg/ml; for inhibition at 0.5 µg/mL: Conc. 0.5 μg/ml; for inhibition at 1 µg/mL: Conc. 1 μg/ml; for inhibition at 2 µg/mL: Conc. 2 μg/ml; for inhibition at 10 µg/mL: Conc. 10 μg/ml
Protocol: Protocol--Enzyme Assays for the Inhibition of Human Polymorphonuclear Leukocyte Elastase Via Hydrolysis of N-t-Boc-alanyl-alanyl-prolylalanine-p-nitroanilide
0.05M TES (N-tris[hydroxymethyl]methyl-2-amino-ethanesulfonic acid) Buffer, pH 7.5.
0.2 mM N-to-Boc-alanyl-alanyl-Prolyl-Alanine-p-nitroanilide (Boc-AAPAN).
To prepare substrate, the solid (m.w. 550) was first dissolved in 10.0 ml DMSO. Buffer at pH 7.5 was then added to a final volume of 100 ml.
Crude extract of human polymorphonuclear leukocytes (PMN) containing elastase activity.
Inhibitors (carbapenem esters) to be tested dissolved in DMSO just before use.
To 1.0 ml of 0.2 mM Boc-AAPAN in a cuvette, 0.01-0.1 ml of DMSO with or without inhibitor was added. After mixing, a measurement was taken at 410 mμ to detect any spontaneous hydrolysis due to presence of test compound. 0.05 Milliliters of PMN extract was then added and the ΔOD/min at 410 mμ was measured and recorded. Beckman model 35 spectrophotometer was used.
The elastase activity in the crude PMN extract may vary from one preparation to another. A control of each new batch is run, and the volume added in the assay procedure is adjusted according to activity.

Compound `CC=C1C(=O)N2C(C(=O)OCc3ccc([N+](=O)[O-])cc3)=C(SCCN3C(=O)c4ccccc4C3=O)CC12` (stereo not shown) has an inhibition at 20 µg/mL of 47% and an inhibition at 50 µg/mL of 73%.
For `CC(O)C1C(=O)N2C(C(=O)OCc3ccc([N+](=O)[O-])cc3)=C(SCc3ccccc3)CC12` (stereo not shown), the inhibition at 20 µg/mL was 50% and the inhibition at 50 µg/mL was 75%.
In the case of `CC(O)C1C(=O)N2C(C(=O)OCc3ccc([N+](=O)[O-])cc3)=C(SCc3ccccn3)CC12` (stereo not shown), the inhibition at 5 µg/mL is reported as 63% and the inhibition at 20 µg/mL is reported as 100%.
Compound `CC(O)C1C(=O)N2C(C(=O)OCc3ccc([N+](=O)[O-])cc3)=C(Sc3ccncc3)CC12` (stereo not shown) has an inhibition at 0.5 µg/mL of 21%, an inhibition at 1 µg/mL of 72% and an inhibition at 5 µg/mL of 93%. For the same compound, the inhibition at 20 µg/mL was 100%.
Compound `CC(O)C1C(=O)N2C(C(=O)OCc3ccc([N+](=O)[O-])cc3)=C(SCCO)CC12` (stereo not shown) has an inhibition at 20 µg/mL of 84% and an inhibition at 50 µg/mL of 95%.
With `CC(OC(=O)OCc1ccccc1[N+](=O)[O-])C1C(=O)N2C(C(=O)OCc3ccccc3[N+](=O)[O-])=C(c3ccc(CN=[N+]=[N-])cc3)CC12` (stereo not shown) the inhibition at 1 µg/mL was 59%, the inhibition at 2 µg/mL was 66% and the inhibition at 5 µg/mL was 74%. The inhibition at 10 µg/mL was 76% and the inhibition at 50 µg/mL was 79%.
With `CC(NC(=O)OCc1ccccc1[N+](=O)[O-])C1C(=O)N2C(C(=O)OCc3ccccc3[N+](=O)[O-])=CCC12` (stereo not shown) the inhibition at 5 µg/mL was 23%, the inhibition at 10 µg/mL was 57% and the inhibition at 20 µg/mL was 72%. For the same compound, the inhibition at 50 µg/mL was 82%.
Work on `CC(OC(=O)OCc1ccccc1[N+](=O)[O-])C1C(=O)N2C(C(=O)OCc3ccccc3[N+](=O)[O-])=CCC12` (stereo not shown) yielded an inhibition at 0.5 µg/mL of 27%, an inhibition at 1 µg/mL of 46% and an inhibition at 2 µg/mL of 78%. It also gave an inhibition at 5 µg/mL of 85%, an inhibition at 10 µg/mL of 88% and an inhibition at 20 µg/mL of 88%.
With `O=C(OCc1ccccc1)C1=C(SCc2ccccc2)CC2C(CO)C(=O)N12` (stereo not shown) [Benzyl] the inhibition at 1 µg/mL was 77%, the inhibition at 5 µg/mL was 90% and the inhibition at 10 µg/mL was 93%. It also gave an inhibition at 50 µg/mL of 97%.
